These results are taken from ChEMBL document CHEMBL1138922, “Nepsilon-thioacetyl-lysine: a multi-facet functional probe for enzymatic protein lysine Nepsilon-deacetylation” (Bioorg Med Chem Lett, 2006).

Activity calls are given as the source filed them. No cut-off for these calls is given here.

Test [1] deals with T1, NAD-dependent protein deacetylase sirtuin-1 (Homo sapiens) (UniProt Q96EB6).
T1 sequence (whole entry): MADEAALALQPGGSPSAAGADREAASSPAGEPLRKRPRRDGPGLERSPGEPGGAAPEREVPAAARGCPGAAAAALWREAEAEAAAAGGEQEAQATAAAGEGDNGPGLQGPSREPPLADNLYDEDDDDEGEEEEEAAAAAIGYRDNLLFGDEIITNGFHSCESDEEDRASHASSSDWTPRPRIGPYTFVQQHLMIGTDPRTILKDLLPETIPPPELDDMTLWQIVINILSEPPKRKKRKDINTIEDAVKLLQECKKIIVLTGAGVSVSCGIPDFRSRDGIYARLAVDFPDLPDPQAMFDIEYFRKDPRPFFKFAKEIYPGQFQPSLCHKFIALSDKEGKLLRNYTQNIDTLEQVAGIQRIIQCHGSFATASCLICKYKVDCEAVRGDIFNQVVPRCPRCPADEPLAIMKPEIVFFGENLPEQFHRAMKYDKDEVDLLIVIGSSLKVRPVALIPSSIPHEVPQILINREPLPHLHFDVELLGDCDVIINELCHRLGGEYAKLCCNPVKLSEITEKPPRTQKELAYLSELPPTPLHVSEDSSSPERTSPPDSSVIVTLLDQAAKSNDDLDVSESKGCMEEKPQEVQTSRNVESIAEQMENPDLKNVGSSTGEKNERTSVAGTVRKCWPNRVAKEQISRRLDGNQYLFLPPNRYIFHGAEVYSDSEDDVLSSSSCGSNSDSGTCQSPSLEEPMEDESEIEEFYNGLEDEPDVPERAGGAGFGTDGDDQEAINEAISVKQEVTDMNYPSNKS
Description: (§1) Inhibition of human SIRT1.

Test [2] has as its target T1, NAD-dependent protein deacetylase sirtuin-1 (Homo sapiens). Description: Inhibition of human SIRT1 at 2 mM.
For test [3], the target named is T2, NAD-dependent protein deacetylase sirtuin-1 (Homo sapiens, UniProt Q96EB6).
T2 sequence (Q96EB6 whole entry): T1 sequence (whole entry)
The description is as §1.

For `C/C(S)=N/CCCC[C@H](NC(=O)OCC1c2ccccc2-c2ccccc21)C(=O)O`, the IC25 in test [1] came to 2000 µM.
`CC(=O)N[C@@H](CCCC/N=C(/C)S)C(=O)O`: the result in test [2] was inactive.
Regarding `CSCC[C@H](NC(=O)[C@H](CC(C)C)NC(=O)[C@H](CCCC/N=C(/C)S)NC(=O)[C@H](CCCCN)NC(=O)[C@H](Cc1c[nH]cn1)NC(=O)[C@H](CCCN=C(N)N)NC(=O)[C@H](CO)NC(=O)[C@@H](NC(=O)[C@H](CO)NC(=O)[C@H](CCC(N)=O)NC(=O)CNC(=O)[C@H](CCCCN)NC(=O)[C@@H](N)CCCCN)[C@@H](C)O)C(=O)N[C@@H](Cc1ccccc1)C(=O)N[C@@H](CCCCN)C(=O)N[C@H](C(=O)N[C@@H](CCC(=O)O)C(=O)NCC(=O)O)[C@@H](C)O`, the IC50 in test [3] came out at 2 µM.
